Experimental data published in patent US11369577B2, “Reprogramming-based models of neurodevelopmental disorders and uses thereof” (IEO—Istituto Europeo di Oncologia S.r.l., priority 2014, dated 2022).
Where a name gives a salt, the structure may show the parent alone.

Biological target: T1, LSD1 (Homo sapiens, UniProt O60341)
T1 construct: endogenous in cells; host or cells: Embryoid bodies formed from control human iPSC line CTR1R-C3
Test: Embryoid body formation assay with LSD1 inhibitor treatment, RT-qPCR of GTF2I target genes
Format: cell-based
Settings: control iPSC line, treatment for 5 days at day 0 and day 4, final concentration 5 uM (Oryzon), 10 uM (DDP26095)
Method: Retrotranscribed cDNAs have been obtained from 1 μg of total DNA-depleted RNA using the superscript VILO retrotranscription kit from Life Technologies according to manufacturer instructions.
For real time q-PCR analysis a total amount of cDNA corresponding to 10-50 ng of starting RNA has been used for each reaction. FAST SYBR green master mix from Life Technologies and 10 μM primers pair have been used.
10 uM RA has been added at day 0 or at day 4. At day 1 EBs have been plated on a low attachment dish and media was replaced with KO-DMEM (+P/S+Glut)(EB media) 20% FBS containing. […] Next, RNA extraction and cDNA preparation has been performed as described above.

Compound	BEND4 mRNA level (RT-qPCR, percentage of GAPDH) upon irreversible LSD1 inhibition
N[C@@H]1C[C@H]1c1ccc(NC(=O)c2cccc(N3CCOC3=O)c2)cc1 (relative stereo) [DDP26095, N-[4-[trans-2-aminocyclopropyl]phenyl]-3-(2-oxooxazolidin-3-yl)benzamide hydrochloride]	increased
Cl.N[C@H]1CC[C@H](N[C@@H]2C[C@H]2c2ccccc2)CC1 [Oryzon, (trans)-N1-((1R,2S)-2-phenylcyclopropyl)cyclohexane-1,4-diamine hydrochloride]	increased
